Laboratory results reported in patent US11787825B2 (priority 2021, dated 2023).
Converted amounts (≈) assume the structure as drawn. Where two headings read alike, the source gives them in different places. Marks after values point to notes of the source that are not given here.

Key:
physchem = settings: 25 °C, thermodynamic from solid
[1] = Beagle, in vivo, po; for Dog F % (suspension): pH 2
[2] = fasted state simulated intestinal fluid (FaSSIF), fassif
[3] = 0.1N HCL, 1.0% DMSO, 24-hour incubation at ambient temperature, maximum theoretical compound concentration 100 μM
[4] = 1×PBS buffer (pH 7.4), 1.0% DMSO, 24-hour incubation at ambient temperature, maximum theoretical compound concentration 100 μM

Row | Compound | solubility (physchem; [2]) | solubility (physchem; fed state simulated intestinal fluid (FeSSIF), fessif) | Dog F % (solution) [1] | Dog F % (suspension) [1] | pH 2 solubility [3] | pH 7 solubility [4] | solubility (physchem; fassif) | solubility (physchem; fessif) | pH 2 solubility (pH 2) | pH 7 solubility (pH 7.4)
1 | CC(C)(C#Cc1ccc(-c2ccc(Cl)c3c(N(C(=O)CCCNC(=O)OCOP(=O)(O)O)S(C)(=O)=O)nn(CC(F)(F)F)c23)c([C@H](Cc2cc(F)cc(F)c2)NC(=O)Cn2nc(C(F)(F)F)c3c2C(F)(F)[C@@H]2C[C@H]32)n1)S(C)(=O)=O [Compound 33, (phosphonooxy)methyl (4-(N-(4-chloro-7-(2-((S)-1-(2-((3bS,4aR)-5,5-difluoro-3-(trifluoromethyl)-3b,4,4a,5-tetrahydro-111-cyclopropa[3,4]cyclopenta[1,2-c]pyrazol-1-yl)acetamido)-2-(3,5-difluorophenyl)ethyl)-6-(3-methyl-3-(methylsulfonyl)but-1-yn-1-yl)pyridin-3-yl)-1-(2,2,2-trifluoroethyl)-1H-indazol-3-yl)methylsulfonamido)-4-oxobutyl)carbamate] | 326 µg/mL (≈ 270 µM) | 300 µg/mL (≈ 248 µM) | 33^b % | 17% | 1 μM | 75 μM | – | – | – | –
2 | Cc1cc(C(=O)O)cc(OP(=O)(O)O)c1C(C)(C)CC(=O)N(c1nn(CC(F)(F)F)c2c(-c3ccc(C#CC(C)(C)S(C)(=O)=O)nc3[C@H](Cc3cc(F)cc(F)c3)NC(=O)Cn3nc(C(F)(F)F)c4c3C(F)(F)[C@@H]3C[C@H]43)ccc(Cl)c12)S(C)(=O)=O [Compound 49, 4-(4-(N-(4-chloro-7-(2-((S)-1-(2-((3bS,4aR)-5,5-difluoro-3-(trifluoromethyl)-3b,4,4a,5-tetrahydro-1H-cyclopropa[3,4]cyclopenta[1,2-c]pyrazol-1-yl)acetamido)-2-(3,5-difluorophenyl)ethyl)-6-(3-methyl-3-(methylsulfonyl)but-1-yn-1-yl)pyridin-3-yl)-1-(2,2,2-trifluoroethyl)-1H-indazol-3-yl)methylsulfonamido)-2-methyl-4-oxobutan-2-yl)-3-methyl-5-(phosphonooxy)benzoic acid] | – | – | – | 20% | – | – | 384 µg/mL (≈ 299 µM) | 390 µg/mL (≈ 304 µM) | 3/100 μM | 3/100 μM
3 | Cc1cc(CC(=O)O)c(C(C)(C)CC(=O)N(c2nn(CC(F)(F)F)c3c(-c4ccc(C#CC(C)(C)S(C)(=O)=O)nc4[C@H](Cc4cc(F)cc(F)c4)NC(=O)Cn4nc(C(F)(F)F)c5c4C(F)(F)[C@@H]4C[C@H]54)ccc(Cl)c23)S(C)(=O)=O)c(OP(=O)(O)O)c1 [Compound 44] | – | – | – | 27% | – | – | 2870 µg/mL (≈ 2210 µM) | 460 µg/mL (≈ 355 µM) | 1/100 μM | 1/100 μM
4 | CN(C(=O)N(c1nn(CC(F)(F)F)c2c(-c3ccc(C#CC(C)(C)S(C)(=O)=O)nc3[C@H](Cc3cc(F)cc(F)c3)NC(=O)Cn3nc(C(F)(F)F)c4c3C(F)(F)[C@@H]3C[C@H]43)ccc(Cl)c12)S(C)(=O)=O)c1ncc(C(=O)O)cc1COP(=O)(O)O [Compound 62, 6-(3-(4-chloro-7-(2-((S)-1-(2-((3bS,4aR)-5,5-difluoro-3-(trifluoromethyl)-3b,4,4a,5-tetrahydro-1H-cyclopropa[3,4]cyclopenta[1,2-c]pyrazol-1-yl)acetamido)-2-(3,5-difluorophenyl)ethyl)-6-(3-methyl-3-(methylsulfonyl)but-1-yn-1-yl)pyridin-3-yl)-1-(2,2,2-trifluoroethyl)-1H-indazol-3-yl)-1-methyl-3-(methylsulfonyl)ureido)-5-((phosphonooxy)methyl)nicotinic acid] | 490 µg/mL (≈ 390 µM) | – | 8 ^c % | – | 1 μM | 67 μM | – | – | – | –
